According to US10800801B2, “Crystalline platinum-based compounds” (AKAMARA THERAPEUTICS, INC., priority 2016, dated 2020):

Test: physchem
Assay type: physicochemical
Conditions: water, Approximate Solubility
Procedure: Despite this, the screen offered a list of suitable solvents/solvent mixtures and anti-solvents to be used for the crystallization experiments. Using information obtained from the initial investigation into the solubility of IO-125, a series of bench scale crystallization experiments were carried out in order to provide examples of solution-based crystallization method that yield crystalline IO-125. Within this investigation, a number of techniques were designed to find suitable crystallization conditions including: using controlled linear cooling of IO-125 in different solvents, anti-solvent additions, evaporations and seeding. […] A significant mass loss was then observed in thermogravimetric trace from approx. 270° C., and was coupled with a large endothermic event with onset of 288.4° C. and peak at 297.2° C. in the differential thermogram. Again, this is likely associated with the decomposition of IO-125.
Initially a series of solvents and mixture of solvents were screened to select suitable solvents for the crystallization procedure.

CC(C)CCC[C@@H](C)[C@H]1CCC2C3CC=C4C[C@@H](OCCN(CC(=O)[O-])CC(=O)[O][Pt+]5[NH][C@@H]6CCCC[C@H]6[NH]5)CC[C@]4(C)C3CC[C@@]21C (stereo partly shown) [Comp 25]
solubility: ≤ 10000 µg/mL
